Results from patent US20040258779A1, “Dietary and pharmaceutical compositions for treatment of anemia, thrombocytopenia, and leukopenia” (priority 2003, published 2004).
Several values for one entry are separate records, joined by “and”; a condition that tells them apart may be missing. Equal values may be shown once.

Columns and labels:
[1] = system: human mononuclear blood cells; assay: TNF alpha production by human mononuclear blood cells; assay type: cell-based; settings: for TNF alpha synthesis by mononuclear cells, in words: versus control samples
Description: PL-3 was added in concentrations of 100 μg/ml, 10 μg/ml, 1 μg/ml, and feeding media was added to the control wells. Cytokine content was defined by IFA with commercial kit […] (Cytimmune, USA).

target cells K-562 = assay: Natural killer cell cytotoxicity on 3H-uridine labeled target cells; assay type: cell-based, human; settings: for function of natural killer cells, Cytotoxicity (%): 3 hours incubation, K-562 targets, donors 1-7 and mean M
Description: Cells were separated after 3 hours of the incubation at 37° C. in CO2 incubator. Their cytotoxic action on the target cells K-562 labeled with ^3H-uridine was evaluated.

monocytes = assay: Active oxygen forms by monocytes, cytofluorometry; assay type: cell-based, human; design: formation of active oxygen forms by monocytes: unit not given here; settings: for formation of active oxygen forms by monocytes: single donors and mean M
Description: (§1) This effect was evaluated by luminal dependent chemoluminiscence and cytofluorometry. In the second case the leukocytes were added to dichlorofluoroscein […]). This substance is originally non fluorescence one. However, after the penetration into the cells it is turned into green fluorochrom in the presence of the hydrogen peroxide. The reaction was monitored in the flow cytometer FACSCalibur.

human mononuclear cells [2] = assay: GM-CSF production by the human mononuclear cells; assay type: cell-based; settings: for GM-CSF production by the human mononuclear cells: donors 1-7 and mean M±; for GM-CSF synthesis, in words: versus random synthesis (control), statistically significant
Description: PL-3 was added in concentrations of 100 μg/ml, 10 μg/ml, 1 μg/ml, and feeding media was added to the control wells. Cytokine content was defined by IFA with commercial kit […] (Cytimmune, USA). The effect of PL-3 on the synthesis of GM-CSF was evaluated accordingly to the previous method.

human mononuclear cells [3] = assay: Cell longevity of mononuclear leukocytes, propidium iodide flow cytometry; assay type: cell-based; settings: for cell longivity (percentage of dead cells): time not given (twofold reduction after 72 hours), donors 1-3 and mean M; for cell longevity: after 24 hours treatment; for cell longevity, protective effect: after 48 hours of incubation; for percentage of dead cells: after 72 hours of the incubation
neutrophils = assay: Active oxygen forms by neutrophils, cytofluorometry; assay type: cell-based, human; settings: versus control data (p=0.08)
Description: as §1

[4] = system: leukocytes of the healthy donors; assay: Active oxygen forms by leukocytes, luminol dependent chemoluminiscence; assay type: cell-based, human
Description: This effect was evaluated by luminal dependent chemoluminiscence and cytofluorometry. In the first case leukocytes were separated by gelatin and connected with luminal, human serum and added to the vials with the different concentration of the substance.

[5] = Hypersensitivity of the delayed type

## CC(=O)N[C@H]1[C@H](O[C@H]2[C@H](O[C@H](C)C(=O)N[C@@H](C)C(=O)N[C@H](CCC(=O)O)C(N)=O)[C@@H](NC(C)=O)C(O)O[C@@H]2CO)O[C@H](CO)[C@@H](O)[C@@H]1O (some centres unmarked) [GMDP, reference compound]
[1]
  TNF alpha synthesis by mononuclear cells, in words: does not lead to the induction
Target cells K-562; 1 μg/ml
  function of natural killer cells, Cytotoxicity (%): 51% and 49% and 38% and 44% and 50% and 47%
Target cells K-562; 10 μg/ml
  function of natural killer cells, Cytotoxicity (%): 34% and 48% and 45% and 40% and 53% and 47%
Target cells K-562; 100 μg/ml
  function of natural killer cells, Cytotoxicity (%): 33% and 48% and 46% and 44% and 50%
monocytes
  generation of active oxygen forms by monocytes, in words: do not generate the active oxygen forms
monocytes; concentration 1.0 (unit not given)
  formation of active oxygen forms by monocytes: 27 and 16 (2×) and 23 and 54 and 15 and 12 and 18 and 14
monocytes; concentration 10.0 (unit not given)
  formation of active oxygen forms by monocytes: 25 and 14 (2×) and 11 and 16 and 70 and 19 and 15 and 26
monocytes; concentration 100.0 (unit not given)
  formation of active oxygen forms by monocytes: 14 and 15 and 12 and 16 (2×) and 34 (2×) and 102 and 19.5
Human mononuclear cells [2]; 100 mkg/ml
  GM-CSF production by the human mononuclear cells: 983 and 584 and 609 and 944 and 581 and 735 and 773
Human mononuclear cells [2]
  GM-CSF synthesis, in words: strong inductors
Human mononuclear cells [3]; 1 μg/ml
  cell longivity (percentage of dead cells): 16 and 17 and 18
Human mononuclear cells [3]; 10 μg/ml
  cell longivity (percentage of dead cells): 17 and 23 and 21
Human mononuclear cells [3]; 100 μg/ml
  cell longivity (percentage of dead cells): 15 and 18 and 24
Human mononuclear cells [3]
  cell longevity: unchanged
  cell longevity, protective effect: weak protective effect
  percentage of dead cells: twofold reduction
neutrophils
  active oxygen forms, cytofluometric analysis, in words: does not posses this activity
[4]
  ability of leukocytes to generate the active oxygen forms (chemoluminiscence), in words: did not change

## CC(=O)NC1C(OC2C(CO)OC(O)C(NC(C)=O)C2OC(C)C(=O)NC(C)C(=O)NC(CCC(=O)NC(CCCC(N)C(=O)O)C(=O)NC(C)C(=O)O)C(N)=O)OC(CO)C(O)C1O [PL-3, N-acetyl-glucosamine-N-acetyl-muramyl-L-alanine-D-isoglutamine-diaminopimenic acid-D-alanine]
[1]
  TNF alpha production in comparison with GMDP: enhanced two fold
  TNF alpha synthesis by mononuclear cells, in words: significant increase
interferon-γ
  interferon-γ: does not affect
Target cells K-562; 1 μg/ml, listed as GMTP
  function of natural killer cells, Cytotoxicity (%): 45% and 56% and 41% and 37% and 55% and 63% and 48%
Target cells K-562; 1 μg/ml, listed as GMTP, mean
  function of natural killer cells, Cytotoxicity (%): 49.2%
Target cells K-562; 10 μg/ml, listed as GMTP
  function of natural killer cells, Cytotoxicity (%): 55% and 38% and 44% and 43% and 53% and 65% and 57%
Target cells K-562; 10 μg/ml, listed as GMTP, mean
  function of natural killer cells, Cytotoxicity (%): 50.7%
Target cells K-562; 100 μg/ml
  cytotoxic activity of the natural killer cells, in words: increase the cytotoxic activity
Target cells K-562; 100 μg/ml, listed as GMTP
  function of natural killer cells, Cytotoxicity (%): 56% and 55% and 49% and 51% and 66% and 54%
Target cells K-562; 100 μg/ml, listed as GMTP, mean
  function of natural killer cells, Cytotoxicity (%): 54.2%
monocytes
  generation of active oxygen forms by monocytes, in words: do not generate the active oxygen forms
monocytes; concentration 1.0 (unit not given), listed as GMTP
  formation of active oxygen forms by monocytes: 31 and 15 and 29 and 50 and 25 (2×) and 18 (2×) and 16
monocytes; concentration 1.0 (unit not given), listed as GMTP, mean
  formation of active oxygen forms by monocytes: 25.2
monocytes; concentration 10.0 (unit not given), listed as GMTP
  formation of active oxygen forms by monocytes: 29 and 14 (2×) and 18 (2×) and 13 and 32 and 17 and 15
monocytes; concentration 10.0 (unit not given), listed as GMTP, mean
  formation of active oxygen forms by monocytes: 18.9
monocytes; concentration 100.0 (unit not given), listed as GMTP
  formation of active oxygen forms by monocytes: 22 and 18 and 13 and 25 and 20 and 42 and 0.6 and 26 and 31
monocytes; concentration 100.0 (unit not given), listed as GMTP, mean
  formation of active oxygen forms by monocytes: 23.8
Human mononuclear cells [2]; 10 mkg/ml and 100 mkg/ml, p=0.029 and 0.038
  GM-CSF synthesis relative to GMDP: almost two times more
Human mononuclear cells [2]; 10 mkg/ml
  GM-CSF production by the human mononuclear cells: 1109 and 752 and 740 and 1115 and 920 and 1052
Human mononuclear cells [2]; 10 mkg/ml, mean
  GM-CSF production by the human mononuclear cells: 975 ± 282.5
Human mononuclear cells [2]
  GM-CSF synthesis, in words: strong inductors
Human mononuclear cells [3]; 1 μg/ml
  cell longivity (percentage of dead cells): 16 and 18
Human mononuclear cells [3]; 10 μg/ml
  cell longivity (percentage of dead cells): 16 and 21 and 17
Human mononuclear cells [3]; 10 μg/ml, mean
  cell longivity (percentage of dead cells): 18
Human mononuclear cells [3]; 100 μg/ml
  cell longivity (percentage of dead cells): 19 and 16
Human mononuclear cells [3]; 100 μg/ml, mean
  cell longivity (percentage of dead cells): 18
Human mononuclear cells [3]
  cell longevity: unchanged
  cell longevity, protective effect: weak protective effect
  percentage of dead cells: twofold reduction
[5]
  hypersensitivity of the delayed type: absence of its effect
neutrophils
  active oxygen forms, cytofluometric analysis, in words: stimulated the active oxygen forms
[4]
  ability of leukocytes to generate the active oxygen forms (chemoluminiscence), in words: did not change
